Experimental findings from US8431593B2, “Heteroaryl amide derivatives” (H. Lundbeck A/S, priority 2006, dated 2013) are described below.

For the assay, the target named is T1, P2X7 receptor (Homo sapiens, UniProt Q99572).
T1 construct: host or cells: SH-SY5Y
T1 sequence (Q99572 1-595): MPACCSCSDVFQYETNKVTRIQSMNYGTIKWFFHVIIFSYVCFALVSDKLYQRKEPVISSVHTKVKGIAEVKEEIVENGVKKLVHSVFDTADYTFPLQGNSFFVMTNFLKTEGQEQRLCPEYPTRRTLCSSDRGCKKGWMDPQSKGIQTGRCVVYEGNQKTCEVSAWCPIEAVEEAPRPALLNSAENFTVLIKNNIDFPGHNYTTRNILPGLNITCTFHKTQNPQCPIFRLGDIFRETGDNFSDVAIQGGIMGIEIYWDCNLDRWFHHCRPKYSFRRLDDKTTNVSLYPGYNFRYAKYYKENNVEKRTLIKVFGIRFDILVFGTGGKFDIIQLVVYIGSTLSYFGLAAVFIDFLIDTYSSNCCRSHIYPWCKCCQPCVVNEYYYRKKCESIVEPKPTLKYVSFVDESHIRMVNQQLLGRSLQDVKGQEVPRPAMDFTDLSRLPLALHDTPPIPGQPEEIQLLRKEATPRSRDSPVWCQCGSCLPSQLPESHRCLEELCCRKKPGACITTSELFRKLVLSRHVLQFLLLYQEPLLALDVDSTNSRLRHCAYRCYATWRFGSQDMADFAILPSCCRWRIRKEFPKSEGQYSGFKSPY
The assay is described as follows: P2X7 calcium mobilization assay, high throughput, antagonist activity (Example 4A). Type of assay: cell-based. Summed up:
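FLIPR^TETRA calcium read-out: maximum RFU per well minus average no-agonist control, with agonist wells giving the average positive maximum. Cells seeded at 100,000/well one day ahead, dye-loaded 1 h, rinsed, then exposed to compound for 1 h at room temperature.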
(In general: A change in cytosolic calcium serves as a functional read-out for many receptors and channels.)

Where [1] appears, read: SH-SY5Y cells, 50% decrease in fluorescence response to 80 μM BzATP, read-out: IC50.
The mark [2] stands for this setting: fluorescence response of cells exposed to 80 μM 2′(3′)-O-(4-benzoyl-benzoyl)adenosine 5′-triphosphate, Example 4A, read-out: IC50.

Broadly, the IC50 is the concentration that inhibits the measured activity by half.

Like-named read-outs stand apart in the source and are kept apart here. Some results are limits rather than exact numbers.

As for `CC(=O)NCCc1cn2c(C(=O)NCC34CC5CC(CC(C5)C3)C4)cccc2n1` [Compound 202, 2-(2-acetamidoethyl)-N-(adamantan-1-ylmethyl)imidazo[1,2-a]pyridine-5-carboxamide], the IC50 under setting [1] was less than 2000 nM. Regarding `O=C(O)c1cnn(Cc2cn3c(C(=O)NCC45CC6CC(CC(C6)C4)C5)cccc3n2)c1` [Compound 203, 1-({5-[(adamantan-1-ylmethyl)carbamoyl]imi-dazo[1,2-a]pyridin-2-yl}methyl)-1H-pyrazole-4-carboxylic acid], the 50% inhibitory concentration (IC50) is less than 2000 nM.

In the case of `CCOC(=O)c1cnn(Cc2cn3c(C(=O)NCC45CC6CC(CC(C6)C4)C5)cccc3n2)c1` [Compound 204, ethyl 1-({5-[(adamantan-1-ylmethyl)carbamoyl]imi-dazo[1,2-a]pyridin-2-yl}methyl)-1H-pyrazole-4-carboxylate], the IC50 was less than 2000 nM. Turning to `CC(c1cn2c(C(=O)NCC34CC5CC(CC(C5)C3)C4)cccc2n1)N1CC[C@@H](N)C1` (stereo partly drawn) [Compound 205, N-(adamantan-1-ylmethyl)-2-{1-[(3R)-3-aminopyrrolidin-1-yl]ethyl}imidazo[1,2-a]pyridine-5-carboxamide], under setting [1], the IC50 is less than 2000 nM. On the same count and under the same terms, the figure for `Nc1nnn(Cc2cn3c(C(=O)NCC45CC6CC(CC(C6)C4)C5)cccc3n2)n1` [Compound 206, N-(adamantan-1-ylmethyl)-2-[(5-amino-2H-tetrazol-2-yl)methyl]imidazo[1,2-a]pyridine-5-carboxamide] is less than 2000 nM; for `Nc1nnnn1Cc1cn2c(C(=O)NCC34CC5CC(CC(C5)C3)C4)cccc2n1` [Compound 207, N-(adamantan-1-ylmethyl)-2-[(5-amino-1H-tetrazol-1-yl)methyl]imidazo[1,2-a]pyridine-5-carboxamide] it is less than 2000 nM. On to `Nc1ccn(Cc2cn3c(C(=O)NCC45CC6CC(CC(C6)C4)C5)cccc3n2)n1` [Compound 208, N-(adamantan-1-ylmethyl)-2-[(3-amino-1H-pyrazol-1-yl)methyl]imidazo[1,2-a]pyridine-5-carboxamide], for which the 50% inhibitory concentration (IC50) under setting [1] is less than 2000 nM. The same measure, in the same setting: the figure for `Nc1ccnn1Cc1cn2c(C(=O)NCC34CC5CC(CC(C5)C3)C4)cccc2n1` [Compound 209, N-(adamantan-1-ylmethyl)-2-[(5-amino-1H-pyrazol-1-yl)methyl]imidazo[1,2-a]pyridine-5-carboxamide] is less than 2000 nM; for `Cc1ccn(Cc2cn3c(C(=O)NCC45CC6CC(CC(C6)C4)C5)cccc3n2)n1` [Compound 210, N-(adamantan-1-ylmethyl)-2-[(3-methyl-1H-pyrazol-1-yl)methyl]imidazo[1,2-a]pyridine-5-carboxamide] it is less than 2000 nM. In the case of `O=C(NCC12CC3CC(CC(C3)C1)C2)c1cccc2nc(Cn3ccccc3=O)cn12` [Compound 211, N-(adamantan-1-ylmethyl)-2-[(2-oxopyridin-1(2H)-yl)methyl]imidazo[1,2-a]pyridine-5-carboxamide], under setting [1], the IC50 was less than 2000 nM.

As to `CCNC(=O)Cc1cn2c(C(=O)NCC(CC(C)C)c3ccccc3)cccc2n1` (centres unmarked) [Compound 220, 2-[2-(ethylamino)-2-oxoethyl]-N-(4-methyl-2-phenylpentyl) imidazo [1,2-a]pyridine-5-carboxamide], the IC50 under setting [2] is less than 2000 nM. For the compound `CC(C)CC(CNC(=O)c1cccc2nc(CC(=O)NCC3CC3)cn12)c1ccccc1` (centres unmarked) [Compound 222, 2-{2-[(cyclopropylmethyl)amino]-2-oxoethyl}-N-(4-methyl-2-phenylpentyl) imidazo [1,2-a]pyridine-5-carboxamide], under setting [2], the IC50 is less than 2000 nM. Same read-out and setting: the figure for `CC(C)CNC(=O)Cc1cn2c(C(=O)NCC(CC(C)C)c3ccccc3)cccc2n1` (centres unmarked) [Compound 223, 2-[2-(isobutylamino)-2-oxoethyl]-N-(4-methyl-2-phenylpentyl) imidazo [1,2-a]pyridine-5-carboxamide] is less than 2000 nM; for `CC(C)CC(CNC(=O)c1cccc2nc(CC(=O)NC3CCCC3)cn12)c1ccccc1` (centres unmarked) [Compound 224, 2-[2-(cyclopentylamino)-2-oxoethyl]-N-(4-methyl-2-phenylpentyl) imidazo [1,2-a]pyridine-5-carboxamide] it is less than 2000 nM; for `CC(C)CC(CNC(=O)c1cccc2nc(CC(=O)NCC(C)(C)C)cn12)c1ccccc1` (centres unmarked) [Compound 225, 2-{2-[(2,2-dimethylpropyl)amino]-2-oxoethyl}-N-(4-methyl-2-phenylpentyl) imidazo [1,2-a]pyridine-5-carboxamide] it is less than 2000 nM.

In the case of `CC(C)CC(CNC(=O)c1cccc2nc(CC(=O)NCC(F)(F)F)cn12)c1ccccc1` (centres unmarked) [Compound 229, N-(4-methyl-2-phenylpentyl)-2-{2-oxo-2-[(2,2,2-trifluoroethyl)amino]ethyl}imidazo[1,2-a]pyridine-5-carboxamide], the IC50 under setting [2] was less than 2000 nM. On to `CCCOCCNC(=O)Cc1cn2c(C(=O)NCC(CC(C)C)c3ccccc3)cccc2n1` (centres unmarked) [Compound 230, N-(4-methyl-2-phenylpentyl)-2-{2-oxo-2-[(2-propoxyethyl)amino]ethyl}imidazo[1,2-a]pyridine-5-carboxamide], for which the IC50 under setting [2] is less than 2000 nM. With `CCC(COC)NC(=O)Cc1cn2c(C(=O)NCC(CC(C)C)c3ccccc3)cccc2n1` (centres unmarked) [Compound 231, 2-(2-{[1-(methoxymethyl)propyl]amino}-2-oxoethyl)-N-(4-methyl-2-phenylpentyl) imidazo [1,2-a]pyridine-5-carboxamide], the IC50 under setting [2] was less than 2000 nM. Still for that read-out and setting: the figure for `CC(C)CC(CNC(=O)c1cccc2nc(CC(=O)NC(C)C(N)=O)cn12)c1ccccc1` (centres unmarked) [Compound 235, 2-{2-[(2-amino-1-methyl-2-oxoethyl)amino]-2-oxoethyl}-N-(4-methyl-2-phenylpentyl)imidazo [1,2-a]pyridine-5-carboxamide] is less than 2000 nM. Still for that read-out and setting: the figure for `CC(C)CC(CNC(=O)c1cccc2nc(CC(=O)N3CCCC(C(F)(F)F)C3)cn12)c1ccccc1` (centres unmarked) [Compound 238, N-(4-methyl-2-phenylpentyl)-2-{2-oxo-2-[3-(trifluoromethyl)piperidin-1-yl]ethyl}imidazo [1,2-a]pyridine-5-carboxamide] is less than 2000 nM. Take `COC1CCN(C(=O)Cc2cn3c(C(=O)NCC(CC(C)C)c4ccccc4)cccc3n2)CC1` (centres unmarked) [Compound 239, 2-[2-(4-methoxypiperidin-1-yl)-2-oxoethyl]-N-(4-methyl-2-phenylpentyl)imidazo [1,2-a]pyridine-5-carboxamide]: the concentration for half-maximal inhibition (IC50) under setting [2] was less than 2000 nM. On to `COCC1CCCN(C(=O)Cc2cn3c(C(=O)NCC(CC(C)C)c4ccccc4)cccc3n2)C1` (centres unmarked) [Compound 240, 2-{2-[3-(methoxymethyl)piperidin-1-yl]-2-oxoethyl}-N-(4-methyl-2-phenylpentyl)imidazo [1,2-a]pyridine-5-carboxamide], for which the half-maximal inhibitory concentration (IC50) under setting [2] is less than 2000 nM. As for `COCC1CCCCN1C(=O)Cc1cn2c(C(=O)NCC(CC(C)C)c3ccccc3)cccc2n1` (centres unmarked) [Compound 241, 2-{2-[2-(methoxymethyl)piperidin-1-yl]-2-oxoethyl}-N-(4-methyl-2-phenylpentyl)imidazo [1,2-a]pyridine-5-carboxamide], the 50% inhibitory concentration (IC50) under setting [2] is less than 2000 nM. The same measure, in the same setting: the figure for `CC(C)CC(CNC(=O)c1cccc2nc(CC(=O)N3CCCC3)cn12)c1ccccc1` (centres unmarked) [Compound 242, N-(4-methyl-2-phenylpentyl)-2-(2-oxo-2-pyrrolidin-1-ylethyl)imidazo[1,2-a]pyridine-5-carboxamide] is less than 2000 nM; for `CC(C)CC(CNC(=O)c1cccc2nc(CC(=O)N3CCCCC3)cn12)c1ccccc1` (centres unmarked) [Compound 243, N-(4-methyl-2-phenylpentyl)-2-(2-oxo-2-piperidin-1-ylethyl)imidazo[1,2-a]pyridine-5-carboxamide] it is less than 2000 nM. The same measure, in the same setting: the figure for `CC(C)CC(CNC(=O)c1cccc2nc(CC(=O)N3CCCC(C)(C)C3)cn12)c1ccccc1` (centres unmarked) [Compound 244, 2-[2-(3,3-dimethylpiperidin-1-yl)-2-oxoethyl]-N-(4-methyl-2-phenylpentyl)imidazo [1,2-a]pyridine-5-carboxamide] is less than 2000 nM; for `CCCN(C)C(=O)Cc1cn2c(C(=O)NCC(CC(C)C)c3ccccc3)cccc2n1` (centres unmarked) [Compound 246, N-(4-methyl-2-phenylpentyl)-2-{2-[methyl(propyl)amino]-2-oxoethyl)imidazo[1,2-a]pyridine-5-carboxamide] it is less than 2000 nM.

As for `CC(C)CC(CNC(=O)c1cccc2nc(CC(=O)N3CCC4(CC3)OCCO4)cn12)c1ccccc1` (centres unmarked) [Compound 247, 2-[2-(1,4-dioxa-8-azaspiro[4.5]dec-8-yl)-2-oxoethyl]-N-(4-methyl-2-phenylpentyl)imidazo [1,2-a]pyridine-5-carboxamide], the IC50 was less than 2000 nM. With `N[C@@H]1CCN(Cc2cn3c(C(=O)NCCC45CC6CC(CC(C6)C4)C5)cccc3n2)C1` [Compound 248, N-(2-adamantan-1-ylethyl)-2-{[(3R)-3-aminopyrrolidin-1-yl]methyl}imidazo[1,2-a]pyridine-5-carboxamide], under setting [2], the IC50 is less than 2000 nM.
